# Assay results as given in patent US20250114313A1, “OLIGO-BENZAMIDE ANALOGS AND THEIR USE IN CANCER TREATMENT” (BOARD OF REGENTS, THE UNIVERSITY OF TEXAS SYSTEM, priority 2022, published 2025).
# Tests used:
# [1] = system: ERα-positive cell lines; assay: WST assay, ERα-positive cell lines; type: cell-based; details: Homo sapiens, read-out: anti-proliferative IC50, WST
# Description: (§1) Cell viability assays: Cells were seeded in 96-well plates (2×10^3 cells/well) one day before the treatment. Cells were treated with varying concentrations of ERX-41 or ERX-11 analogs for 3-6 days. Then effects of ERX-41 or ERX-11 analogs on cell viability were measured in triplicate or sextuplicate with multiple biological replicates using the WST-1 (Promega), MTT as previously described^33 or CellTiter-Glo 2.0 (Promega) assays.
# [2] = system: HMEC cells; assay: Western blotting (UPR proteins, puromycin labeled nascent proteins), HMEC; type: cell-based, human; details: 1 μM
# [3] = system: TNBC cells; assay: Ca^2+ flux in TNBC cells; type: cell-based; details: data not shown
# [4] = system: ovarian cancer PDX (OCa-PDX-38); assay: Ovarian cancer PDX OCa-PDX-38; type: in vivo, NSG mice; details: 10 mg/kg daily
# Description: (§2) Animal Studies: All animal experiments were performed using UTHSA and UTSW IACUC approved protocols. For cell based xenograft tumor assays, TNBC cells (2×10^5-2×10^6) were mixed with an equal volume of matrigel and implanted in the mammary fat pads of 6-week-old female athymic nude mice as described^33. BALB/c mice were used for D2A1 syngeneic model. Once tumors reached measurable size, mice were divided into control (vehicle) and ERX-41 (10 mg/kg/oral) treatment groups. Mice bearing TNBC PDX tumors were purchased from Jackson laboratory (TM00089; TM00096; TM00098). TNBC PDX line UTPDX0001 establishment was earlier described^38. WHIM-20 ER+PDX model was purchased from Horizon Labs. OCa-PDX-38 was received from UTHSA ObGyn tissue procurement core. When tumors reached ˜750 mm^3 they were dissected into 2 mm^3 pieces and implanted into the mammary fat pads of 6 weeks old female SCID or NSG mice. When the tumor volume reached ˜200 mm^3, mice were randomized for treatment. The mice were monitored daily for adverse toxic effects and tumor volume was measured every 3-4 days using calipers. For establishing ES2 tumors, ES2/GFP/LUC cells were injected i.p. and tumors were measured twice a week using Xenogen in vivo imaging system. […] The mice were monitored daily for adverse toxic effects. […] The sections were scored by two independent evaluators blinded to the patient's clinical status.
# [5] = Tolerability of daily dosing in mice (pilot MTD); type: in vivo; details: daily oral or intraperitoneal, up to 100 mg/kg
# Description: as §2
# [6] = system: SUM-159 cells with LIPA KO; assay: CellTiter-Glo, SUM-159 LIPA KO cells; type: cell-based; details: Homo sapiens, SUM159; SUM-159 stably transfected mCherry-RAMP4, CellTiter-Glo
# Description: as §1
# Lentiviral constructs cloning: LentiCRISPRv2 vector was used for CRSPR KO experiments. sgRNAs, which were chosen from human CRISPR knockout pooled library, were cloned into lentiCRISPRv2 vector^34. Human LIPA cDNA (GenBank: BC012287) or mouse LIPA cDNA (NM_021460) were clone into pWPI for over expression experiments. For TurboID experiment, the LIPA-TurboID sequence was cloned into pCW57-MCS1-2A-MCS2 vector. LentiCRISPR v2 was purchased from Addgene (Addgene #52961; //n2t.net/addgene:52961; RRID:Addgene_52961) (via Feng Zhang). pWPI was purchased from Addgene (Addgene #12254; //n2t.net/addgene:12254; RRID:Addgene_12254) (via Didier Trono). pCW57-MCS1-2A-MCS2 was purchased from Addgene (#71782) (via Adam Karpf). Human LIPA gene is referred as LIPA, while mouse LIPA gene is referred as mLIPA in this disclosure. […]
# [7] = system: ERα-positive breast cancer cells (MCF-7, ZR-75); assay: MTT cell viability, ERα-positive breast cancer cells; type: cell-based, Human; details: Homo sapiens, MCF-7 and ZR-75, read-out: anti-proliferative IC50
# Description: as §1
# [8] = system: HMEC cells; assay: Live cell imaging with SYTOX Green, cell death in HMEC; type: cell-based
# Description: Live cell imaging: Live cell images were acquired by Lionheart FX automated microscope (BioTek). Cells were plated one day before the experiment. For cell death assay, 0.2 μM SYTOX Green was added into the plate 15 min before the experiment.
# [9] = biological target: T1, ER Alpha-LBD (GST) (Homo sapiens, UniProt P03372); assay: LanthaScreen TR-FRET ER alpha Coactivator Assay, antagonist mode; type: binding; details: 2 h incubation
# T1 construct: 3.5 nM ER Alpha-LBD (GST); purchased life technologies A15885
# T1 sequence (P03372 311-547 limits assumed): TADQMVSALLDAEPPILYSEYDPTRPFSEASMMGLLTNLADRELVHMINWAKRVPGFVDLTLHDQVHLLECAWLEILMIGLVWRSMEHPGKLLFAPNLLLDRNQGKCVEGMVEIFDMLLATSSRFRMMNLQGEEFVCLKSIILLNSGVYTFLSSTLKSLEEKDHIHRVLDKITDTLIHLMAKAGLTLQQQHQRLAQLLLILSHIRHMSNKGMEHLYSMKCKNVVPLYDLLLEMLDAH
# [10] = system: MDA-MB-231 TNBC xenografts; assay: MDA-MB-231 TNBC xenografts, ERX-41; type: in vivo; details: oral, 10 mg/kg/day
# Description: Animal Studies: All animal experiments were performed using UTHSA and UTSW IACUC approved protocols. For cell based xenograft tumor assays, TNBC cells (2×10^5-2×10^6) were mixed with an equal volume of matrigel and implanted in the mammary fat pads of 6-week-old female athymic nude mice as described^33. BALB/c mice were used for D2A1 syngeneic model. Once tumors reached measurable size, mice were divided into control (vehicle) and ERX-41 (10 mg/kg/oral) treatment groups. Mice bearing TNBC PDX tumors were purchased from Jackson laboratory (TM00089; TM00096; TM00098). TNBC PDX line UTPDX0001 establishment was earlier described^38. WHIM-20 ER+PDX model was purchased from Horizon Labs. OCa-PDX-38 was received from UTHSA ObGyn tissue procurement core. When tumors reached ˜750 mm^3 they were dissected into 2 mm^3 pieces and implanted into the mammary fat pads of 6 weeks old female SCID or NSG mice. When the tumor volume reached ˜200 mm^3, mice were randomized for treatment. The mice were monitored daily for adverse toxic effects and tumor volume was measured every 3-4 days using calipers. For establishing ES2 tumors, ES2/GFP/LUC cells were injected i.p. and tumors were measured twice a week using Xenogen in vivo imaging system. At the end of each experiment, the mice were euthanized, and the tumors were removed, weighed and processed for histological studies and protein analysis. Dose were selected based on pilot MTD study of 10, 50 100 mg/kg of ERX-41 for 14 days using C57BL6 mice. The mice were monitored daily for adverse toxic effects. IHC analysis was conducted as described previously^39 and immunoreactivity was visualized using DAB substrate and counterstained with hematoxylin (Vector Laboratories Inc. Burlingame, CA). Control rabbit IgG staining was used as a negative control. The sections were scored by two independent evaluators blinded to the patient's clinical status.
# [11] = system: TNBC; assay: ER stress, cell death and lysosomes in TNBC (discussion, no method); type: cell-based
# [12] = system: D2A1 xenografts; assay: D2A1 syngeneic tumor model; type: in vivo, BALB/c mice; details: 10 mg/kg daily
# Description: as §2
# [13] = system: 21 human preclinical TNBC cell line models; assay: CellTiter-Glo cell viability, TNBC cell lines; type: cell-based; details: 21 TNBC cell lines, read-out: anti-proliferative IC50, CellTiter-Glo
# Description: as §1
# [14] = system: four distinct TNBC PDXs; assay: TNBC PDXs in mammary fat pad; type: in vivo, mice; details: daily oral, 10 mg/kg/day
# Description: as §2
compound,measurement,setting,value
CC(C)COc1cc(C(=O)Nc2ccc(C(=O)N[C@H]3CC[C@H](C)CC3)cc2OCC(C)C)ccc1NC(=O)c1ccc([N+](=O)[O-])c(OCCO)c1 [ERX-41],IC50,[1],50 to 1000 nM
same,global de novo protein synthesis in HMEC,[2],not HMEC cells
same,induction of ER stress / UPR proteins in HMEC,[2],not in HMEC cells
same,Ca^2+ flux within TNBC cells,[3],not able to induce Ca^2+ flux
same,activity against OCa-PDX-38,[4],has activity against
same,tolerability,[5],"well tolerated by mice, with no clear evidence of toxicity"
same,IC50,[6],~4000 nM
same,IC50,[7],100 to 125 nM
same,induction of cell death in HMEC,[8],did not significantly induce cell death
same,interaction with ERα LBD,[9],does not interact with ERG LBD
same,extirpated tumor weights and sizes at end of study,[10],decreased tumor growth
same,growth of established xenografts,[10],significantly decreased the growth
same,"overt toxicity, body weights of treated mice",[10],no alterations in body weights
same,changes in lysosomes,[11],no significant changes in lysosomes
same,growth of D2A1 xenografts,[12],significantly reduce the growth
same,IC50,[13],< 250 nM
same,rates of growth of PDX tumors,[14],significantly decreased the rates of growth of the tumors
